Measurements published in US20120010161A1, “NOVEL AZAPEPTIDE OR AZAPEPTIDOMIMETIC COMPOUNDS INHIBITING BCRP AND/OR P-GP” (CENTRE NATIONAL DE LA RECHERCHE SCIENTIFIQUE, priority 2009, published 2012).

What was measured:
[1] = tested on: HEK-293 cells; test: Cytotoxicity on cell growth, MTT test; type: cell-based, human; settings: 72 hours; for harmlessness / toxicity on HEK-293 cells: cells expressing or not ABCG2
Procedure: The cells are seeded (10 000 cells/well) in 96-well plates and incubated for 24 hours at 37° C. under 5% CO2. Varied concentrations of mitoxantrone (from 0 to 20 μM in a constant final volume of 100 μL) are then added with an equal volume of each of the test compounds. The cells are then left to divide for 72 hours. The cytotoxicity is evaluated colorimetrically with 3-(4,5-dimethylthiazol-2-yl)-2,5-diphenyltetrazolium bromide (MTT).
Increasing concentrations of compound (IA.2) are applied to HEK-293 cells expressing or not expressing ABCG2, and whose residual vitality is evaluated after 72 hours of treatment by an MTT test. The results are illustrated in FIG. 4, in which the cells expressing ABCG2 are represented by empty circles, and those not expressing it by solid circles. […] This absence of toxicity is observed even at a very high concentration such as 40 μM, which corresponds to 40 times the IC50 value.
(§1) Increasing concentrations of compound (IA.1) are applied to HEK-293 cells expressing or not expressing ABCG2, and whose residual vitality is evaluated after 72 hours of treatment by an MTT test. The results are illustrated in FIG. 6, in which the cells expressing ABCG2 are represented by empty circles, and those not expressing it by solid circles.
as §1, with “(IB.1)” for “(IA.1)”, “8,” for “6,”, “circles” for “circles,”
as §1, with “(IB.11)” for “(IA.1)”, “10,” for “6,”

[2] = target: T1, MRP1/ABCC1 (Homo sapiens, UniProt P33527); test: Flow cytometry: daunorubicin efflux induced by ABCC1 in transfected BHK21 cells; type: cell-based; settings: probe daunorubicin (1 μM), 10 μM compound, read-out: MRP1/ABCC1 % efficacy 10 μM
T1 construct: His; expressed in transfected cells; host or cells: BHK21 (newborn hamster kidney) transfected with pNUT-MRP/His
Excerpt: Cell cultures. The human […] HEK-293 transfected with the vector pcDNA3.1 including or not the gene encoding ABCG2 (Robey, R. W., Honjo, Y., Morisaki, K., Nadjem, T. A., Runge, S., Risbood, M., Poruchynsky, M. S., Bates, S. E. 2003, Br. J. Cancer 89(10) 1971-1978) was used to test the efficacy of the products on ABCG2. The newborn hamster kidney cell line BHK21 either natural (negative control) or transfected with the vector pNUT-MRP/His expressing the gene encoding ABCC1 (Chang, Xiu-Bao, Hou, Yue-Xian, Riordan, John R. 1997, J. Biol. Chem. 272(49) 30962-30968) was used to test the efficacy of the products on ABCC1. The cell line NIH3T3 natural or transfected with the vector pHaMDR1/A expressing ABCB1 (Cardarelli, Carol O., Aksentijevich, Ivan, Pastan, Ira, Gottesman, Michael M. 1995 Cancer Res. 55 1086-1091) was used to test the efficacy of the compounds on ABCB1. […]
FIG. 1 schematically illustrates an efflux of substrate induced by a typical ABC transporter. The substrates S, such as mitoxantrone effluxed with ABCG2 and ABCB1 or daunorubicin effluxed with ABCC1, are accumulated in the cells and expelled by the transporter T, leading to a decrease in intracellular fluorescence. In the case of accumulation of the product, typically by inhibition of the efflux protein, the intracellular fluorescence increases.
Flow cytometry. […] The drug intracellular fluorescence is measured with a FACscan flow cytometer (Becton Dickinson, Mountain View, Calif.). The fluorescent substrates are excited at 488 nm; the fluorescence emission of mitoxantrone (MTX) is measured at 650 nm and that of daunorubicin is measured at 530 nm. […]
in which: • FA corresponds to the intracellular level of substrate measured in the cells overexpressing the transporter T (corresponding to the lowest level of fluorescence in the absence of inhibitor), • FC corresponds to the fluorescence in the control cells not expressing the test transporter. […]

T1 sequence (P33527 whole entry): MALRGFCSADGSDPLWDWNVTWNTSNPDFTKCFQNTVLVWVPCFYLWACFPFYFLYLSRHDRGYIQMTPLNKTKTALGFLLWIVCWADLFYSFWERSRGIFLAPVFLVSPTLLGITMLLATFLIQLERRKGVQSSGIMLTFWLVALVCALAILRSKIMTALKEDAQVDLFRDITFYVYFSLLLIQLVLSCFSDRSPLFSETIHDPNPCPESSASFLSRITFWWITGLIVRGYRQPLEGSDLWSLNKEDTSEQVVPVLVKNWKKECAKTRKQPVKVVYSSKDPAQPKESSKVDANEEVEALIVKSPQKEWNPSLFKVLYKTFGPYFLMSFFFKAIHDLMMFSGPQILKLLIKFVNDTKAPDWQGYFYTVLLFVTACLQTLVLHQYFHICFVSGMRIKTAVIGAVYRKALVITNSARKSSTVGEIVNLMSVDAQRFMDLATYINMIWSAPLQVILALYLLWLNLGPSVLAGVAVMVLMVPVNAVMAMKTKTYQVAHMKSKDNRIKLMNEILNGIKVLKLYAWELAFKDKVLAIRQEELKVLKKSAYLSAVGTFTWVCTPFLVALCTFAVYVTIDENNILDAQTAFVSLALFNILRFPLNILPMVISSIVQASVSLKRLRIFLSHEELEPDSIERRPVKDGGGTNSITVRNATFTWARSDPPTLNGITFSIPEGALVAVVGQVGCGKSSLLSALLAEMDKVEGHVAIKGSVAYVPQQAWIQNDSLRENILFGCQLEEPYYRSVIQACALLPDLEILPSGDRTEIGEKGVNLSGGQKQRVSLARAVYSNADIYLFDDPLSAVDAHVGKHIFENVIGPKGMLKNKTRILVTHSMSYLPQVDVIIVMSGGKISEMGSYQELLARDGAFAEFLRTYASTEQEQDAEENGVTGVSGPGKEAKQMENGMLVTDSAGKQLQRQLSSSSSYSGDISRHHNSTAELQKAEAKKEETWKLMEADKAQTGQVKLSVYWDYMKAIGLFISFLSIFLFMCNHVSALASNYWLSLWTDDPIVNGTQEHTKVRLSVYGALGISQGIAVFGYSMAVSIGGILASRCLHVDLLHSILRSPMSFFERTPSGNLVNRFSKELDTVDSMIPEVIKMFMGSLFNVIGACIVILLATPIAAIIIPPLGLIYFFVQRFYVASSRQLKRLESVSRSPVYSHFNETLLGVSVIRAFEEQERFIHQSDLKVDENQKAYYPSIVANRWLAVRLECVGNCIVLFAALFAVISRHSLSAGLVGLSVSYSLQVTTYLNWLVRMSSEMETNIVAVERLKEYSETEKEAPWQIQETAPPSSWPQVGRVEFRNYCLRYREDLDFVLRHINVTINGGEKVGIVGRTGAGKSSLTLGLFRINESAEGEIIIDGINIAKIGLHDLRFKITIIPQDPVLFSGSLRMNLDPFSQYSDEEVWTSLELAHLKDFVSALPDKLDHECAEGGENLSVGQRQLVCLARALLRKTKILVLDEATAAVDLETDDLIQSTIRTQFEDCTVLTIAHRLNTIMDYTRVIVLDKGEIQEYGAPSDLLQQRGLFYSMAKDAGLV

## CC(C)(C)OC(=O)NN(C(=O)N[C@@H](CCCCNC(=O)OCc1ccccc1)C(=O)OC(C)(C)C)c1ccccc1C(=O)OCc1ccccc1 [IA.1, tert-Butyl ester of (2S)-6-(benzyloxycarbonylamino)-2-[1-(2′-(benzyloxycarbonyl)phenyl)-2-(tert-butoxycarbonyl)hydrazino-carbonylamino]hexanoic acid]
[1]
  harmlessness / toxicity on HEK-293 cells: harmlessness
[1]; concentration range tested, more than 10 times its IC50, expressing or not ABCG2
  cytotoxic effect on HEK-293 cells: no cytotoxic effect
[2]
  inhibition at 10 μM: 14 ± 3%

## CC(C)(C)OC(=O)NN(C(=O)N[C@@H](CCCCNC(=O)OCc1ccccc1)C(=O)OC(C)(C)C)c1cccc(C(=O)OCc2ccccc2)c1 [IA.2, tert-Butyl ester of (2S)-6-(benzyloxycarbonylamino)-2-[1-(3′-(benzyloxycarbonyl)phenyl)-2-(tert-butoxycarbonyl)hydrazino-carbonylamino]hexanoic acid]
[1]
  harmlessness / toxicity on HEK-293 cells: harmlessness
[1]; up to 40 μM (40 times the IC50), expressing or not ABCG2
  cytotoxicity on HEK-293 cells: absolutely not cytotoxic
[2]
  inhibition at 10 μM: 5 ± 1%

## CC(C)(C)OC(=O)N[C@H](CNN(CCCCCCNC(=O)OCc1ccccc1)C(=O)OC(C)(C)C)CC(=O)OCc1ccccc1 [IB.1, Benzyl ester of (3S)-4-[2-(6-benzyloxycarbonylaminohexyl)-2-tert-butoxycarbonylhydrazino]-3-tert-butoxycarbonylaminobutyric acid]
[1]; at 40 times the IC50
  cytotoxicity on HEK-293 cells: relative cytotoxicity
[1]
  harmlessness / toxicity on HEK-293 cells: harmlessness
[1]; up to 20 times its IC50, expressing or not ABCG2
  cytotoxic effect on HEK-293 cells: no cytotoxic effect
[2]
  inhibition at 10 μM: 5 ± 1%

## CC(C)(C)OC(=O)N[C@H](CNN(CCCCCCNC(=O)OCc1ccccc1)C(=O)OCc1ccccc1)CC(=O)OCc1ccccc1 [IB.11, Benzyl ester of (3S)-4-[2-benzyloxycarbonyl-2-(6-benzyloxycarbonylaminohexyl)hydrazino]-3-tert-butoxycarbonyl-aminobutyric acid]
[1]
  harmlessness / toxicity on HEK-293 cells: harmlessness
[1]; concentration range tested, more than 80 times its IC50, expressing or not ABCG2
  cytotoxic effect on HEK-293 cells: no cytotoxic effect
